Measured values from patent US5674730A, “Eukaryotic cells comprising a DNA sequence encoding a bacterial-viral chimeric transactivator protein” (priority 1993, dated 1997).

Columns and labels:
Assay type in all cases: cell-based
[1] = system: LAP348 lac activator protein: E. coli lacI 5'N1 with HSV VP16 amino acids 369-488 inserted after lacI amino acid 348, stably expressed; experiment: CAT assay in cell line stably expressing LAP348, with or without IPTG (FIG. 8); conditions: IPTG (10 mM per FIG. 8 legend) added to medium two days before transfection; LAPneo2b cells
Experimental: FIG. 8 Inhibition of LAP348 activity of L3 cells by IPTG. Either LTK or L3, or L3 cells grown in the presence of 10 mM IPTG (L3+i) for 48 hours before transfection, were transfected with either pSV2cat or pL1-2cat as indicated. The relative activity of the extracts normalized to that produced by SV2cat in Ltk- cells are shown below.
(§1) Cells were transfected by the calcium phosphate precipitation method as previously described (Wigler et al., 1979, Proc. Natl. Acad. Sci. USA 76:1373-1376). For transient expression assays, 50-70% confluent […] of cells were incubated overnight after addition to the media of a 1 ml precipitate containing 2 μg of reporter and 1 μg of effector plasmids and carrier DNA (high molecular weight calf thymus DNA) for a total of 25 μg of DNA. The media and precipitate were removed and replaced with fresh media the next morning.
(§2) Cells were harvested 44-48 hours after transfection and CAT assays performed essentially as described (Gorman et al., 1982, Mol. Cell Biol. 2:1044-1051). Equal amounts (30-200 μg) of protein were used in each experiment. CAT activity was quantitated by thin layer chromatography and liquid scintillation counting of spots. Extracts that converted greater than 80% of the chloramphenicol in an assay were diluted appropriately to ensure linearity of the assay. […]

[2] = system: LAP348 lac activator protein: E. coli lacI 5'N1 (SV40 nuclear localization signal) with HSV VP16 amino acids 369-488 inserted after lacI amino acid 348; experiment: Transient cotransfection CAT assay with or without IPTG in the growth medium (FIG. 6); conditions: 10 mM IPTG in growth medium; HeLa cells cotransfected with pL1-2CAT and pHCMVLAP348
Experimental: FIG. 6 Inhibition of LAP activity by IPTG. HeLa cells were plated out two days before transfection in normal media or media containing 10 mM IPTG. Transfections contained 2 μg of either pSV2CAT or pL1-2CAT alone or with 1 μg of pHCMVLAP348. Cells transfected in IPTG were fed with media containing 10 mM IPTG 16 hours after transfection. CAT assays were preformed as described in the text. The relative activities (RA) of each extract normalized to that produced by pSV2CAT are shown below the figure.
as §1
as §2, with “spots.” for “spots. Extracts that converted greater than 80% of the chloramphenicol in an assay were diluted appropriately to ensure linearity of the assay.”

[3] = system: LAP267 temperature-sensitive lac activator protein: E. coli lacI 5'N1 with HSV VP16 segment inserted after lacI amino acid 267; experiment: CAT expression from pL14CAT as a function of IPTG concentration at 39.5° C. (FIG. 9); conditions: 39.5° C. (non-permissive temperature); HeLa cells cotransfected with LAP267 and pL14CAT
Experimental: FIG. 9 Reverse-regulatory effect of IPTG on transactivator activity of LAP267 at 39.5° C.
LAP267 was constructed as described for LAP348 in Section 6.1.1., supra, except that the VP16 segment was inserted at an EcoRV site after amino acid 267 in the lacI coding region (FIG. 1A).
HeLa cells were cotransfected with plasmids encoding the LAP267 or LAP348 activator protein and pL14CAT, encoding CAT reporter gene. […] This property enables the expression of genes controlled by LAP267 to be induced at 39.5° C. by addition of IPTG to the culture medium.

CC(C)S[C@@H]1O[C@H](CO)[C@H](O)[C@H](O)[C@H]1O [IPTG, isopropyl β-D-thiogalactoside]
reduction of expression of pL1-2CAT in LAP348-expressing cell line [1]: greater than 30 fold | reduction of the level of activation of pL1-2CAT by LAP348 [2]: greater than 10 fold | effect of IPTG on transactivator activity of LAP267 [3]: reverse regulator
